# Several values for one entry are separate records, joined by “and”; a condition that tells them apart may be missing. Equal entries are not always repeated. Entries after “also recorded” stand apart in the source; their conditions may differ. Where two headings read alike, the source gives them in different places.
# Columns and labels:
# isolated mitochondria = assay: Oxygen consumption rate of ADP-stimulated isolated mitochondria; assay type: biochemical; settings: 50 μM injected after ADP; no enzymatic activation
# Method: Mitochondria were isolated using a Mitochondria Isolation Kit (Abcam, UK) per manufacturer instructions. Briefly, 10^7 cells were collected and ruptured using 30 strokes in a pre-cooled dounce homogenizer. Homogenate was centrifuged twice at 1,000×g for 10 minutes at 4° C. to remove debris, and finally at 12,000×g for 15 minutes at 4° C. Pellet containing the isolated mitochondria was resuspended in a protease inhibitor cocktail. Protein concentration was determined using Bradford. 20 μg of mitochondrial protein per well was plated in gelatin-coated SeaHorse XFp cell culture miniplate and centrifuged at 3,000×g for 20 minutes at 4° C. in mitochondrial assay solution (MAS) as previously described (29). Oxygen consumption rate (OCR) was measured by the XFp Extracellular Flux Analyzer (Seahorse Biosciences, USA). Mitochondrial activity was profiled by successive injections of ADP (Sigma-Aldrich, Israel) and 50 μM of troglitazone, rotenone or DMSO control.
# HepG2/C3A cells [1] = assay: Flux balance analysis of metabolic pathways and ATP production; assay type: cell-based, human; settings: 50 μM; for ATP production, % of untreated cells: calculated from flux balance; for Glutaminolysis (calculated metabolic flux) / Glycolysis (calculated metabolic flux) / Lipogenesis (calculated metabolic flux) / Respiration (calculated metabolic flux): troglitazone 6 hours, rotenone 3 hours
# Method: Glucose uptake, oxygen uptake and lactate production rates were measured by calculating the change in metabolite concentration between the bioreactor in- and outflow, as function of perfusion rate and cell number as described above. Metabolic rates were calculated assuming negligible contribution to oxygen uptake by fatty acid oxidation and enzymatic activity. Low level of lipids in the culture medium ensured that fatty acid uptake was 50-fold lower than glucose while glutamine contribution to the Krebs cycle was minor (results).
# Based on these assumptions, oxidative phosphorylation flux was calculated by dividing oxygen uptake rate by six. 32 ATP molecules generated by complete oxidation of 1 molecule of glucose were estimated. Glycolysis flux was calculated by dividing lactate production rate by two, with maximal rate defined by glucose uptake rate minus the oxidative phosphorylation flux. ATP production in glycolysis was estimated to be 2 molecules per molecule of glucose. It was assumed that any glucose left over was directed toward lipogenesis, as the contribution of pentose phosphate pathway in nonproliferating cells is minor (31). Finally, it was assumed that excess lactate was produced by glutaminolysis, and confirmed the assumption using offline measurement of glutamine uptake (FIGS. 10A and 10B). ATP production in glutaminolysis was estimated to be 3 molecules per molecule of lactate generated.
# HepG2/C3A cells [2] = assay: TUNEL apoptosis assay; assay type: cell-based, human; settings: 24 hours exposure to 200 μM
# Method: (§1) PMDS microwell inserts were removed from the bioreactor following 24 hours exposure to rotenone or troglitazone. Cholestasis was evaluated using 5(6)-carboxy-2′, 7′-dichlorofluorescein diacetate (CDFDA) cell permeable dye which is metabolized to fluorescent CDF and secreted to active bile canaliculi by active multidrug resistance-associated protein 2 (MRP2). Briefly, cells were incubated with 2 μg/mL of CDFDA and 1 μg/mL of Hoechst 33342 for 20 min, and washed with PBS. Number of bile canaliculi foci was normalized for number of Hoechst-labeled nuclei. Apoptosis was evaluated using DeadEnd™ fluorometric TUNEL system (Promega, USA) according to manufacturer directions. Briefly, cells were fixed in 4% paraformaldehyde, permeabilized and exposed to fluorescein-12-dUTP and terminal deoxynucleotidyl transferase (TdT), dyeing apoptotic nuclei green. The reaction was subsequently stopped and the cells counterstained for Hoechst. A percent apoptotic nucleus was calculated by dividing the number of TUNEL to Hoechst positive nuclei.
# [3] = test system: primary human hepatocytes; settings: cited from earlier work
# HepG2/C3A cells [4] = assay: Quantification of ATP/ADP ratio; assay type: cell-based, human; settings: 50 μM
# Method: Intracellular ATP and ADP quantification was carried out using Abeam ADP/ATP Assay Kit (#ab65313), according to manufacturer's instructions. […] Cells were incubated in nucleotide releasing buffer for 5 min at room temperature, with gentle shaking. Background bioluminescence reading of the reaction mix was taken for calibration, followed by 2 min incubation of 50 μl sample solution in each reaction well, and a bioluminescence reading to measure cellular ATP content. ADP converting enzyme was then added, as instructed, following incubation of 2 min at room temperature to measure total ADP+ATP.
# HepG2/C3A spheroids = assay: Offline glutamine uptake in bioreactor perfusate; assay type: cell-based, human; settings: 50 μM
# Method: Glutamine concentration was determined using glutamine and glutamate determination kit (Sigma-Aldrich). Bioreactors containing HepG2/C3A spheroids were set up as described in the main text and perfused at 2 μl/min. Perfusate samples were collected for 60 minutes for a total of 120 μl per sample. Glutamine was quantified according to manufacturer directions.
# HepG2/C3A cells [5] = assay: Seahorse Mitochondrial Stress Test (OCR, ECAR), static culture; assay type: cell-based, human; settings: 50 μM; for decrease in maximal mitochondrial capacity: after uncoupler injection
# Method: HepG2/C3A cells were plated in gelatin-coated SeaHorse XFp cell culture miniplates (Seahorse Bioscience, USA) and cultured for 24 hours. Subsequently, cultures were treated with medium containing 50 μM troglitazone for 6 hours, 50 μM rotenone for 3 hours, or vehicle control prior to initiation of assay. Mitochondrial Stress Test assay was conducted per manufacturer instructions (29). Briefly, cells were incubated in unbuffered XF Base Medium supplemented with 2 mM glutamine, 1 mM sodium pyruvate, and 10 mM glucose (pH 7.4) for 1 hour at 37° C. in a non-CO2 incubator. Basal oxygen consumption rate (OCR) was measured for 30 min, followed by injection of 1 μM oligomycin, a mitochondrial […] inhibitor that completely blocks oxidative phosphorylation. The decrease in OCR due to oligomycin treatment is defined as oxidative phosphorylation rate. 1 μM carbonyl cyanide-4 (trifluoromethoxy) phenylhydrazone (FCCP), an uncoupling agent, is added at 60 min to measure maximal mitochondrial activity followed by complete inhibition at 90 min using a mixture of 0.5 μM antimycin A and rotenone, mitochondrial Complex III and Complex I inhibitors. Basal extracellular acidification rates (ECAR) was measured for 30 min, in the presence of 10 mM glucose, followed by injection of 1 μM oligomycin. The increase in ECAR due to oligomycin treatment was defined as glycolytic capacity. Data are presented normalized to […] cells as determined by Hoechst DNA content assay.
# HepG2/C3A cells [6] = assay: CDFDA staining for cholestasis (CDF retention, MRP2); assay type: cell-based, human; settings: 24 hours exposure to 200 μM; due to inhibition of MRP2
# Method: as §1
# [7] = surrogate of lactate production
Compound,"ATP production, % of untreated cells (HepG2/C3A cells [1])",Glutaminolysis (calculated metabolic flux) (HepG2/C3A cells [1]) [nmol/min/10^6 cells],Glycolysis (calculated metabolic flux) (HepG2/C3A cells [1]) [nmol/min/10^6 cells],Lipogenesis (calculated metabolic flux) (HepG2/C3A cells [1]) [nmol/min/10^6 cells],Respiration (calculated metabolic flux) (HepG2/C3A cells [1]) [nmol/min/10^6 cells],increase in glutamine consumption (offline measurement) (HepG2/C3A spheroids) [folds],decrease in (mitochondrial) basal metabolic rate (HepG2/C3A cells [5]; static culture),decrease in maximal mitochondrial capacity (HepG2/C3A cells [5]; static culture) [%],further results
C=C(C)[C@H]1Cc2c(ccc3c2O[C@@H]2COc4cc(OC)c(OC)cc4[C@@H]2C3=O)O1 [rotenone],less than 36%,0.56,0.97,0,0.03,30±4,83% and 83±5%,87,"loss of OCR / inhibition of mitochondrial respiration in isolated mitochondria (isolated mitochondria): immediate; also recorded: directly inhibit mitochondrial respiration in minutes; decrease in oxidative phosphorylation flux (HepG2/C3A cells [1]; after 3 hours of exposure): 90%; increase in glycolysis (flux) (HepG2/C3A cells [1]; after 3 hours of exposure): 34%; increase in apoptosis (TUNEL) (HepG2/C3A cells [2]): 14 fold and 14±2 fold; CC50 [3]: 2 µM; decrease in ATP/ADP ratio (HepG2/C3A cells [4]): 47%; glutamine uptake (outlet-inlet), in words (HepG2/C3A spheroids): increase in glutamine uptake; decrease in oxidative phosphorylation (HepG2/C3A cells [5]; static culture): 85±5% and 85±8%; glycolytic capacity change (HepG2/C3A cells [5]; static culture): relatively unchanged; decrease in extracellular acidification rate (ECAR) (HepG2/C3A cells [5]; [7]): 21±12%"
Cc1c(C)c2c(c(C)c1O)CCC(C)(COc1ccc(CC3SC(=O)NC3=O)cc1)O2 (stereo not shown) [troglitazone],97%,0.02,2.25,0,0.25,5±2,20±6%,22±9,decrease in oxidative phosphorylation flux (HepG2/C3A cells [1]; after 6 hours of exposure): 23%; increase in glycolysis (flux) (HepG2/C3A cells [1]; after 6 hours of exposure): 51%; CC50 ([3]; read-out: TC50 in primary hepatocytes): 100 µM; increase in intracellular accumulation of bile acids / CDF staining (cholestasis) (HepG2/C3A cells [6]): 4.5 fold and 4.5±0.6 fold; increase in extracellular acidification rate (ECAR) (HepG2/C3A cells [5]; [7]): 43±43%

# From US20190086391A1, “METHOD AND SYSTEM FOR CONTINUOUS BIOSENSING” (Yissum Research Development Company of the Hebrew …, priority 2016, published 2019)
